Source: PubChem BioAssay (NCI)
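Exposure lasted 48 hours, with cells grown in 96-well plates and compounds tested at five concentrations. TGI marks complete inhibition of growth.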

Assays:
Experiment in all cases: NCI tumour cell line growth inhibition, 48 h
[1] = test system: OVCAR-5 ovarian
[2] = test system: HCT-116 colon
[3] = test system: RPMI-8226 leukemia
[4] = test system: DLD-1 colon
[5] = test system: P388/ADR leukemia
[6] = test system: P388 leukemia
[7] = test system: TK-10 renal
[8] = test system: SF-539 CNS
[9] = test system: PC-3 prostate
[10] = test system: UACC-257 melanoma
[11] = test system: SN12C renal
[12] = test system: SNB-75 CNS
[13] = test system: A498 renal
[14] = test system: RXF 393 renal
[15] = test system: HCC-2998 colon
[16] = test system: NCI-H522 lung
[17] = test system: K-562 leukemia
[18] = test system: NCI-H23 lung
[19] = test system: CCRF-CEM leukemia
[20] = test system: SK-MEL-5 melanoma
[21] = test system: MOLT-4 leukemia
[22] = test system: XF 498 CNS
[23] = test system: HCT-15 colon
[24] = test system: DMS 273 small cell lung
[25] = test system: MALME-3M melanoma
[26] = test system: CAKI-1 renal
[27] = test system: EKVX NSCLC
[28] = test system: HOP-18 NSCLC
[29] = test system: U251 CNS
[30] = test system: NCI-H460 lung
[31] = test system: M19-MEL melanoma
[32] = test system: DMS 114 small cell lung
[33] = test system: HT29 colon
[34] = test system: LOX IMVI melanoma
[35] = test system: UACC-62 melanoma
[36] = test system: SK-OV-3 ovarian
[37] = test system: KM12 colon
[38] = test system: SK-MEL-28 melanoma
[39] = test system: NCI-H226 lung
[40] = test system: OVCAR-4 ovarian
[41] = test system: KM20L2 colon
[42] = test system: SW-620 colon
[43] = test system: SF-268 CNS
[44] = test system: COLO 205 colon
[45] = test system: RXF-631 renal
[46] = test system: OVCAR-8 ovarian
[47] = test system: SF-295 CNS
[48] = test system: ACHN renal
[49] = test system: UO-31 renal
[50] = test system: A549 NSCLC
[51] = test system: LXFL 529 NSCLC
[52] = test system: SR leukemia
[53] = test system: IGROV1 ovarian
[54] = test system: HL-60(TB) leukemia
[55] = test system: OVCAR-3 ovarian
[56] = test system: SNB-78 CNS
[57] = test system: HOP-62 NSCLC
[58] = test system: HOP-92 NSCLC
[59] = test system: 786-0 renal
[60] = test system: SNB-19 CNS
[61] = test system: M14 melanoma

Question: How did the TGI [1] turn out when `CCCCCCCCCCNC1CC(OC2CC(O)(C(O)CO)Cc3c(O)c4c(c(O)c32)C(=O)c2c(OC)cccc2C4=O)OC(C)C1O` (stereo not given) was run?
Answer: The TGI was 3.29 µM.

Question: What about the TGI [2] of the same compound?
Answer: Its TGI is 0.65 µM.

Question: And the TGI [3]?
Answer: The TGI was 3.73 µM.

Question: What about the TGI [4] of the same compound?
Answer: The TGI was 2.28 µM.

Question: What about the TGI [5] of the same compound?
Answer: The TGI was 3.34 µM.

Question: What about the TGI [6] of the same compound?
Answer: The TGI was 0.362 µM.

Question: And the TGI [7]?
Answer: The TGI was 56.5 µM.

Question: What about the TGI [8] of the same compound?
Answer: The TGI was 3.41 µM.

Question: What about the TGI [9] of the same compound?
Answer: Its TGI is 2.85 µM.

Question: What about the TGI [10] of the same compound?
Answer: Its TGI is 3.05 µM.

Question: What about the TGI [11] of the same compound?
Answer: Its TGI is 3.4 µM.

Question: What about the TGI [12] of the same compound?
Answer: Its TGI is 2.74 µM.

Question: And the TGI [13]?
Answer: The TGI was 2.62 µM.

Question: What about the TGI [14] of the same compound?
Answer: Its TGI is 2.75 µM.

Question: And the TGI [15]?
Answer: The TGI was 2.74 µM.

Question: What about the TGI [16] of the same compound?
Answer: The TGI was 3.73 µM.

Question: What about the TGI [17] of the same compound?
Answer: Its TGI is 0.963 µM.

Question: What about the TGI [18] of the same compound?
Answer: The TGI was 12.6 µM.

Question: And the TGI [19]?
Answer: The TGI was 4.91 µM.

Question: What about the TGI [20] of the same compound?
Answer: The TGI was 3.06 µM.

Question: What about the TGI [21] of the same compound?
Answer: Its TGI is 0.9 µM.

Question: And the TGI [22]?
Answer: Its TGI is 3.34 µM.

Question: And the TGI [23]?
Answer: The TGI was 4 µM.

Question: For `Cc1cccc(C)c1NC(=O)C(=O)C1C(=O)NC(=O)NC1=O`, which TGI [1] is on record?
Answer: Its TGI is greater than 100 µM.

Question: And the TGI [24]?
Answer: The TGI was greater than 100 µM.

Question: And the TGI [2]?
Answer: The TGI was greater than 100 µM.

Question: What about the TGI [25] of the same compound?
Answer: Its TGI is greater than 100 µM.

Question: What about the TGI [26] of the same compound?
Answer: The TGI was greater than 100 µM.

Question: And the TGI [27]?
Answer: Its TGI is greater than 100 µM.

Question: What about the TGI [28] of the same compound?
Answer: Its TGI is greater than 100 µM.

Question: What about the TGI [29] of the same compound?
Answer: Its TGI is greater than 100 µM.

Question: What about the TGI [30] of the same compound?
Answer: The TGI was greater than 100 µM.

Question: What about the TGI [31] of the same compound?
Answer: The TGI was greater than 100 µM.

Question: What about the TGI [32] of the same compound?
Answer: The TGI was greater than 100 µM.

Question: What about the TGI [33] of the same compound?
Answer: The TGI was greater than 100 µM.

Question: What about the TGI [3] of the same compound?
Answer: Its TGI is greater than 100 µM.

Question: And the TGI [34]?
Answer: The TGI was greater than 100 µM.

Question: And the TGI [35]?
Answer: Its TGI is greater than 100 µM.

Question: What about the TGI [36] of the same compound?
Answer: Its TGI is greater than 100 µM.

Question: What about the TGI [4] of the same compound?
Answer: The TGI was greater than 100 µM.

Question: What about the TGI [37] of the same compound?
Answer: Its TGI is greater than 100 µM.

Question: And the TGI [7]?
Answer: Its TGI is greater than 100 µM.

Question: And the TGI [38]?
Answer: Its TGI is greater than 100 µM.

Question: And the TGI [8]?
Answer: The TGI was greater than 100 µM.

Question: What about the TGI [39] of the same compound?
Answer: Its TGI is greater than 100 µM.

Question: What about the TGI [10] of the same compound?
Answer: Its TGI is greater than 100 µM.

Question: And the TGI [40]?
Answer: Its TGI is greater than 100 µM.

Question: What about the TGI [41] of the same compound?
Answer: The TGI was greater than 100 µM.

Question: What about the TGI [42] of the same compound?
Answer: Its TGI is greater than 100 µM.

Question: What about the TGI [11] of the same compound?
Answer: The TGI was greater than 100 µM.

Question: What about the TGI [13] of the same compound?
Answer: Its TGI is greater than 100 µM.

Question: What about the TGI [14] of the same compound?
Answer: The TGI was greater than 100 µM.

Question: And the TGI [43]?
Answer: The TGI was greater than 100 µM.

Question: What about the TGI [44] of the same compound?
Answer: The TGI was greater than 100 µM.

Question: And the TGI [15]?
Answer: Its TGI is greater than 100 µM.

Question: And the TGI [45]?
Answer: The TGI was greater than 100 µM.

Question: What about the TGI [46] of the same compound?
Answer: The TGI was greater than 100 µM.

Question: What about the TGI [47] of the same compound?
Answer: The TGI was greater than 100 µM.

Question: And the TGI [48]?
Answer: Its TGI is greater than 100 µM.

Question: What about the TGI [16] of the same compound?
Answer: Its TGI is greater than 100 µM.

Question: What about the TGI [17] of the same compound?
Answer: Its TGI is greater than 100 µM.

Question: And the TGI [49]?
Answer: Its TGI is greater than 100 µM.

Question: What about the TGI [50] of the same compound?
Answer: The TGI was greater than 100 µM.

Question: And the TGI [18]?
Answer: The TGI was greater than 100 µM.

Question: And the TGI [19]?
Answer: The TGI was greater than 100 µM.

Question: What about the TGI [51] of the same compound?
Answer: Its TGI is greater than 100 µM.

Question: What about the TGI [52] of the same compound?
Answer: The TGI was greater than 100 µM.

Question: What about the TGI [20] of the same compound?
Answer: Its TGI is greater than 100 µM.

Question: And the TGI [53]?
Answer: The TGI was greater than 100 µM.

Question: What about the TGI [54] of the same compound?
Answer: The TGI was greater than 100 µM.

Question: What about the TGI [55] of the same compound?
Answer: Its TGI is greater than 100 µM.

Question: And the TGI [56]?
Answer: Its TGI is greater than 100 µM.

Question: What about the TGI [57] of the same compound?
Answer: Its TGI is greater than 100 µM.

Question: What about the TGI [21] of the same compound?
Answer: The TGI was greater than 100 µM.

Question: What about the TGI [58] of the same compound?
Answer: The TGI was greater than 100 µM.

Question: What about the TGI [59] of the same compound?
Answer: The TGI was greater than 100 µM.

Question: What about the TGI [22] of the same compound?
Answer: Its TGI is greater than 100 µM.

Question: And the TGI [60]?
Answer: The TGI was greater than 100 µM.

Question: And the TGI [61]?
Answer: The TGI was greater than 100 µM.

Question: What about the TGI [23] of the same compound?
Answer: Its TGI is greater than 100 µM.
